Data: patent publication US20080220103A1, “METHOD FOR TREATING/CONTROLLING/KILLING FUNGI AND BACTERIA ON LIVING ANIMALS” (priority 2005, published 2008)
Values after ≈ are worked out from the molar mass of the structure shown. Values joined by “and” are separate entries in the source; they are usually repeats but may differ in a detail not shown here. Equal values may be shown once. Read-outs that look alike come from different tables or passages of the source.

Tests used:
[1] = tested on: All dermatophytes; assay: Minimum fungicidal concentration, pooled dermatophytes; type: cell-based, E. floccosum, T. rubrum, T. mentagrophytes; conditions: All dermatophytes, n = 18
Experimental: (§1) Minimum fungicidal concentration (MFC): The minimum fungicidal concentrations of various agents were determined using the technique described by Canton et al. (Antimicrob Agents Chemother. 2004 8:2477-82). In that method, fungal conidia were collected following growth on potato dextrose agar (PDA) plates and were used to inoculate 96-well plates containing different concentrations of agents. Following incubation at 35° C. for 4 days (for dermatophytes) or 24 hours (for yeast), wells showing no visible growth were cultured to determine the MFC (defined as the lowest concentration of a given agent that kills>99.999% of fungal conidia or spores). The MFC value represents the level of the agent at which spores or conidia were killed.
(§2) In the following Tables, MIC50 and MIC90 are defined as the minimal concentrations of a compound that can inhibit 50% and 90% of the tested organisms, respectively.

[2] = tested on: E. floccosum; assay: MIC, modified CLSI M38A broth dilution; type: cell-based, Epidermophyton floccosum
Experimental: (§3) Minimum Inhibitory Concentration (MIC): Minimum inhibitory concentrations of synthetic and semisynthetic and natural products against dermatophytes were determined using a modification of the Clinical Laboratory Standards Institute (CLSI, formerly National Committee of Clinical Laboratory Standards, NCCLS) M38A standard method for dermatophytes, while MIC of these agents against Candida species were determined using the CLSI M27-A2 methodology. The method used to determine the MIC against bacteria was based on the CLSI document M7-A7.
(§4) For dermatophytes, serial dilutions of terbinafine, tolnaftate were prepared in a range of 0.004-2 μg/ml, while for miconazole concentrations ranged between 0.015-8 μg/ml. Finally, for essential oils, the concentrations tested were between 0.03-16 μg/ml. The only exception was tea tree oil where dilutions were prepared in a range of 0.0078-4 μg/ml. The MIC was read at 4 days post inoculation and defined as the lowest concentration of an agent to inhibit 80% of fungal growth as compared to the growth control (Table 2).

[3] = tested on: T. rubrum; assay: Minimum fungicidal concentration (Canton et al.); type: cell-based, Trichophyton rubrum; conditions: for MFC: Trichophyton rubrum
Experimental: as §1

[4] = tested on: All dermatophytes; assay: MIC, modified CLSI M38A, pooled dermatophytes; type: cell-based, E. floccosum, T. rubrum, T. mentagrophytes
Experimental: as §3, §4, §2

[5] = tested on: E. floccosum; assay: Minimum fungicidal concentration (Canton et al.); type: cell-based, Epidermophyton floccosum; conditions: for MFC: Epidermophyton floccosum
Experimental: as §1

[6] = tested on: T. mentagrophytes; assay: Minimum fungicidal concentration (Canton et al.); type: cell-based, Trichophyton mentagrophytes; conditions: for MFC: Trichophyton mentagrophytes
Experimental: as §1

[7] = tested on: C. parapsilosis; assay: MIC, CLSI M27-A2; type: cell-based, Candida parapsilosis
Experimental: as §3
The remaining essential oils were prepared in a dilution range of 0.03-16 μg/ml. For Candida the MIC was read at 24 hours and defined as the lowest concentration to inhibit 50% of fungal growth as compared to the growth control (Table 4).

[8] = tested on: S. epidermidis; assay: MIC, CLSI M7-A7, Mueller-Hinton; type: cell-based; conditions: for MIC: read-out: MIC
Experimental: as §3
(§5) For bacterial species, the medium used to evaluate the antibacterial activity of agents and essential oils was Mueller-Hinton (Oxoid Ltd., Basingstoke, Hampshire, England). Serial dilutions of miconazole, terbinafine, and tolnaftate were prepared in a range of 0.125-64 μg/ml and serial dilutions of tea tree oil were prepared in a range of 0.0078-4 μg/ml, while those for the rest of the essential oils were prepared in a range 0.031-16 μg/ml.

[9] = tested on: All bacteria (Staphylococcus species); assay: MIC, CLSI M7-A7, pooled bacteria; type: cell-based, S. aureus, S. epidermidis
Experimental: as §3, §5, §2

[10] = tested on: T. rubrum; assay: MIC, modified CLSI M38A broth dilution; type: cell-based, Trichophyton rubrum
Experimental: as §3, §4

[11] = tested on: T. mentagrophytes; assay: MIC, modified CLSI M38A broth dilution; type: cell-based, Trichophyton mentagrophytes
Experimental: as §3, §4

[12] = Epidermophyton floccosum, E. floccosum, n = 6
[13] = Lodderomyces parapsilosis, C. parapsilosis, n = 6
[14] = Staphylococcus epidermidis, S. epidermidis, n = 6
[15] = Trichophyton rubrum, T. rubrum, n = 6
[16] = Trichophyton mentagrophytes, T. mentagrophytes, n = 6

- MIC Range ([2]; E. floccosum, n = 6): 0.03 to 0.06 µg/mL
- MIC ([2]; Epidermophyton floccosum, E. floccosum strain 1666): 0.06 µg/mL (≈ 0.206 µM)
- MIC ([2]; Epidermophyton floccosum, E. floccosum strain 1798): 0.03 µg/mL (≈ 0.103 µM)
- MIC ([2]; Epidermophyton floccosum, E. floccosum strain 1925): 0.03 µg/mL (≈ 0.103 µM)
- MIC ([2]; Epidermophyton floccosum, E. floccosum strain 1926): 0.06 µg/mL (≈ 0.206 µM)
- MIC ([2]; Epidermophyton floccosum, E. floccosum strain 1961): 0.06 µg/mL (≈ 0.206 µM)
- MIC ([2]; Epidermophyton floccosum, E. floccosum strain 2165): 0.06 µg/mL (≈ 0.206 µM)
- MIC50 [2, 12]: 0.06 µg/mL (≈ 0.206 µM)
- MIC90 [2, 12]: 0.06 µg/mL (≈ 0.206 µM)
- MIC50 ([4]; n = 18): 0.03 µg/mL (≈ 0.103 µM)
- MIC90 ([4]; n = 18): 0.06 µg/mL (≈ 0.206 µM)
- MIC Range ([4]; n = 18): 0.015 µg/mL and 0.008 to 0.015 µg/mL
- MIC Range ([4]; n = 18, listed as terbinafine): 0.008 to 0.06 µg/mL
- MIC Range ([7]; C. parapsilosis, n = 6): 0.25-0.25 μg/mL
- MIC Range ([7]; C. parapsilosis, n = 6, listed as terbinafine): 0.25 µg/mL (≈ 0.858 µM)
- MIC ([7]; Lodderomyces parapsilosis, C. parapsilosis strain 7629): 0.25 µg/mL (≈ 0.858 µM)
- MIC ([7]; Lodderomyces parapsilosis, C. parapsilosis strain 7668): 0.25 µg/mL (≈ 0.858 µM)
- MIC ([7]; Lodderomyces parapsilosis, C. parapsilosis strain 7672): 0.25 µg/mL (≈ 0.858 µM)
- MIC ([7]; Lodderomyces parapsilosis, C. parapsilosis strain 7995): 0.25 µg/mL (≈ 0.858 µM)
- MIC ([7]; Lodderomyces parapsilosis, C. parapsilosis strain 8148): 0.25 µg/mL (≈ 0.858 µM)
- MIC ([7]; Lodderomyces parapsilosis, C. parapsilosis strain 8442): 0.25 µg/mL (≈ 0.858 µM)
- MIC50 [7, 13]: 0.25 µg/mL (≈ 0.858 µM)
- MIC90 [7, 13]: 0.25 µg/mL (≈ 0.858 µM)
- MIC Range ([8]; S. epidermidis, n = 6): >64 µg/mL
- MIC ([8]; Staphylococcus epidermidis, S. epidermidis strain 8472): > 64 µg/mL
- MIC ([8]; Staphylococcus epidermidis, S. epidermidis strain 8473): > 64 µg/mL
- MIC ([8]; Staphylococcus epidermidis, S. epidermidis strain 8474): > 64 µg/mL
- MIC ([8]; Staphylococcus epidermidis, S. epidermidis strain 8475): > 64 µg/mL
- MIC ([8]; Staphylococcus epidermidis, S. epidermidis strain 8476): > 64 µg/mL
- MIC ([8]; Staphylococcus epidermidis, S. epidermidis strain 8477): > 64 µg/mL
- MIC50 [8, 14]: > 64 µg/mL
- MIC90 [8, 14]: > 64 µg/mL
- MIC50 ([9]; Staphylococcus, n = 12): > 64 µg/mL
- MIC90 ([9]; Staphylococcus, n = 12): > 64 µg/mL
- MIC Range ([9]; n = 12): >64 µg/mL
- MIC Range ([9]; n = 12, listed as TERBINAFINE): >64 µg/mL
- MIC Range ([9]; n = 12, listed as terbinafine): > 64 µg/mL
- MIC Range ([10]; T. rubrum, n = 6): 0.008 to 0.015 µg/mL
- MIC ([10]; Trichophyton rubrum, T. rubrum strain 1967): 0.015 µg/mL (≈ 0.0515 µM)
- MIC ([10]; Trichophyton rubrum, T. rubrum strain 2098): 0.015 µg/mL (≈ 0.0515 µM)
- MIC ([10]; Trichophyton rubrum, T. rubrum strain 2246): 0.008 µg/mL (≈ 0.0275 µM)
- MIC ([10]; Trichophyton rubrum, T. rubrum strain 8063): 0.015 µg/mL (≈ 0.0515 µM)
- MIC ([10]; Trichophyton rubrum, T. rubrum strain 8071): 0.015 µg/mL (≈ 0.0515 µM)
- MIC ([10]; Trichophyton rubrum, T. rubrum strain 8092): 0.015 µg/mL (≈ 0.0515 µM)
- MIC50 [10, 15]: 0.015 µg/mL (≈ 0.0515 µM)
- MIC90 [10, 15]: 0.015 µg/mL (≈ 0.0515 µM)
- MIC Range ([11]; T. mentagrophytes, n = 6): 0.004 to 0.03 µg/mL
- MIC ([11]; Trichophyton mentagrophytes, T. mentagrophytes strain 1720): 0.004 µg/mL (≈ 0.0137 µM)
- MIC ([11]; Trichophyton mentagrophytes, T. mentagrophytes strain 2124): 0.03 µg/mL (≈ 0.103 µM)
- MIC ([11]; Trichophyton mentagrophytes, T. mentagrophytes strain 2125): 0.03 µg/mL (≈ 0.103 µM)
- MIC ([11]; Trichophyton mentagrophytes, T. mentagrophytes strain 2126): 0.004 µg/mL (≈ 0.0137 µM)
- MIC ([11]; Trichophyton mentagrophytes, T. mentagrophytes strain 2127): 0.03 µg/mL (≈ 0.103 µM)
- MIC ([11]; Trichophyton mentagrophytes, T. mentagrophytes strain 2128): 0.03 µg/mL (≈ 0.103 µM)
- MIC50 [11, 16]: 0.03 µg/mL (≈ 0.103 µM)
- MIC90 [11, 16]: 0.03 µg/mL (≈ 0.103 µM)
Structure (SMILES): CN(C/C=C/C#CC(C)(C)C)Cc1cccc2ccccc12 [Terbinafine, terbinafine]
- MFC Range [1]: 0.03 to 0.125 µg/mL
- MFC ([1]; read-out: MFC, row MIC50): 0.06 µg/mL (≈ 0.206 µM)
- MFC ([1]; read-out: MFC, row MIC90): 0.125 µg/mL (≈ 0.429 µM)
- MFC range (row MIC Range) ([3]; T. rubrum, n = 6): 0.03 to 0.125 µg/mL
- MFC ([3]; T. rubrum strain 1967, read-out: MFC): 0.125 µg/mL (≈ 0.429 µM)
- MFC ([3]; T. rubrum strain 2098, read-out: MFC): 0.06 µg/mL (≈ 0.206 µM)
- MFC ([3]; T. rubrum strain 2246, read-out: MFC): 0.06 µg/mL (≈ 0.206 µM)
- MFC ([3]; T. rubrum strain 8063, read-out: MFC): 0.06 µg/mL (≈ 0.206 µM)
- MFC ([3]; T. rubrum strain 8071, read-out: MFC): 0.06 µg/mL (≈ 0.206 µM)
- MFC ([3]; T. rubrum strain 8092, read-out: MFC): 0.03 µg/mL (≈ 0.103 µM)
- MFC ([3]; T. rubrum, n = 6, read-out: MFC, row MIC50): 0.06 µg/mL (≈ 0.206 µM)
- MFC ([3]; T. rubrum, n = 6, read-out: MFC, row MIC90): 0.125 µg/mL (≈ 0.429 µM)
- MFC range (row MIC Range) ([5]; E. floccosum, n = 6): 0.03 to 0.125 µg/mL
- MFC ([5]; E. floccosum strain 1666, read-out: MFC): 0.06 µg/mL (≈ 0.206 µM)
- MFC ([5]; E. floccosum strain 1798, read-out: MFC): 0.03 µg/mL (≈ 0.103 µM)
- MFC ([5]; E. floccosum strain 1925, read-out: MFC): 0.06 µg/mL (≈ 0.206 µM)
- MFC ([5]; E. floccosum strain 1926, read-out: MFC): 0.06 µg/mL (≈ 0.206 µM)
- MFC ([5]; E. floccosum strain 1961, read-out: MFC): 0.125 µg/mL (≈ 0.429 µM)
- MFC ([5]; E. floccosum strain 2165, read-out: MFC): 0.125 µg/mL (≈ 0.429 µM)
- MFC ([5]; E. floccosum, n = 6, read-out: MFC, row MIC50): 0.06 µg/mL (≈ 0.206 µM)
- MFC ([5]; E. floccosum, n = 6, read-out: MFC, row MIC90): 0.125 µg/mL (≈ 0.429 µM)
- MFC range (row MIC Range) ([6]; T. mentagrophytes, n = 6): 0.06 to 0.125 µg/mL
- MFC ([6]; T. mentagrophytes strain 2124, read-out: MFC): 0.125 µg/mL (≈ 0.429 µM)
- MFC ([6]; T. mentagrophytes strain 2125, read-out: MFC): 0.125 µg/mL (≈ 0.429 µM)
- MFC ([6]; T. mentagrophytes strain 2127, read-out: MFC): 0.06 µg/mL (≈ 0.206 µM)
- MFC ([6]; T. mentagrophytes strain 2128, read-out: MFC): 0.125 µg/mL (≈ 0.429 µM)
- MFC ([6]; T. mentagrophytes, n = 6, read-out: MFC, row MIC50): 0.125 µg/mL (≈ 0.429 µM)
- MFC ([6]; T. mentagrophytes, n = 6, read-out: MFC, row MIC90): 0.125 µg/mL (≈ 0.429 µM)
